The subject of test [1] is FMN riboswitch aptamer (FMN RNA) (RNA, riboswitch) GGGUGUAUCCUUCGGGGCAGGGUGGAAAUCCCGACCGGCGGUAGUAAAGCACAUUUGCUUUAGAGCCCGUGACCCGUGUGCAUAAGCACGCGGUGGAUUCAGUUUAAGCUGAAGCCGACAGUGAAAGUCUGGAUGGGAGAAGGAUGA
Kind of test: photoaffinity labeling, Cy5 click fluorescence and PAGE. The settings on record: covalent; 10 μM probe; competed out by 10 μM FMN.

For test [2], the system named is FMN RT RNA (FMN riboswitch in structure cassette) (RNA, riboswitch) GGGCCUUCGGGCCAAUGUAUCCUUCGGGGCAGGGUGGAAAUCCCGACCGGCGGUAGUAAAGCACAUUUGCUUUAGAGCCCGUGACCCGUGUGCAUAAGCACGCGGUGGAUUCAGUUUAAGCUGAAGCCGACAGUGAAAGUCUGGAUGGGAGAAGGAUGAUCGAUCCGGUUCGCCGGAUCCAAAUCGGGCUUCGGUCCGGUUC
Kind of test: SHAPE (NAI). The settings on record: 15 mM MgCl2, 100 mM KCl; 50 mM HEPES pH 8.0, 37 °C; 100 μM compound.

The test system is the same in test [3]. Kind of test: reverse transcription termination after photo-cross-linking. The settings on record: covalent; folding buffer, 37 °C; 10 μM probe, 2 μM RNA; stops competed by FMN.
The subject of test [4] is FMN riboswitch aptamer (FMN RNA) (RNA, riboswitch) GGGUGUAUCCUUCGGGGCAGGGUGGAAAUCCCGACCGGCGGUAGUAAAGCACAUUUGCUUUAGAGCCCGUGACCCGUGUGCAUAAGCACGCGGUGGAUUCAGUUUAAGCUGAAGCCGACAGUGAAAGUCUGGAUGGGAGAAGGAUGA
Kind of test: photoaffinity labeling, Cy5 click fluorescence. The settings on record: covalent, 10 μM probe.

For test [5] the test system is unchanged. Kind of test: competitive photoaffinity labeling, PAGE. The settings on record: displaces probe 1 (10 μM), UV cross-linked, fluorescein-azide click.
For test [6] the test system is unchanged. Kind of test: competitive photoaffinity labeling, microplate reader fluorescence. The settings on record: displaces probe 1.

`C#CC[C@@H](C(=O)NCCC1(C)N=N1)N(CCCC(=O)O)CCn1c2nc(=O)[nH]c(=O)c-2nc2cc(C)c(C)cc21`: the binding result in test [1], in test [2] and in test [3] was “yes” throughout.
As for `C#CC[C@@H](C(=O)NCCc1ccc(C(=O)c2ccccc2)cc1)N(CCCC(=O)O)CCn1c2nc(=O)[nH]c(=O)c-2nc2cc(C)c(C)cc21`, in test [4] (low click efficiency not excluded), the binding result is recorded as “weak”.
Regarding `C#CC[C@@H](C(=O)NCCc1ccc(N=[N+]=[N-])cc1)N(CCCC(=O)O)CCn1c2nc(=O)[nH]c(=O)c-2nc2cc(C)c(C)cc21`, the binding entry in test [4] is recorded as “yes”.
Turning to `Cc1cc2nc3c(=O)[nH]c(=O)nc-3n(C[C@H](O)[C@H](O)[C@H](O)CO)c2cc1N(C)C`, in test [5], the “apparent IC50” value worked out at 7000 ± 180 nM.
In the case of `Cc1cc2nc3c(=O)[nH]c(=O)nc-3n(C[C@H](O)[C@H](O)[C@H](O)COP(=O)(O)O)c2cc1C`, the “apparent IC50” value in test [6] and in test [5] was 400 ± 10 nM each time. Besides, in test [2], the binding result is on record as “yes”.

Values taken from paper PMC9204756 (2022).
